This assay deals with methicillin-resistant Staphylococcus aureus. Description: In-vitro time-kill test on S. aureus (MRSA). The settings on record: for Post-exposure population: inoculum 1.460×10^7 CFU/ML.

Experimental: This example compares the test composition to a solution of 4% chlorhexidine gluconate. The microorganism used in the test was methicillin-resistant Staphylococcus aureus.
An in-vitro time-kill test was performed on S. aureus using both the test composition and the solution of 4% chlorhexidine gluconate. A S. aureus suspension with an inoculum level of 1.460×10^7 colony-forming units (CFU)/ML was used for all tests. A 0.1 mL aliquot of the S. aureus suspension was added to 9.9 mL of the test composition or the 4% chlorhexidine gluconate solution and exposed for periods of one minute, five minutes, and 10 minutes. At the end of each exposure period, a neutralizer was added to stop the bactericidal activity.

On to `N=C(NCCCCCCNC(=N)NC(=N)Nc1ccc(Cl)cc1)NC(=N)Nc1ccc(Cl)cc1.O=C(O)[C@H](O)[C@@H](O)[C@H](O)[C@H](O)CO.O=C(O)[C@H](O)[C@@H](O)[C@H](O)[C@H](O)CO` [4% chlorhexidine gluconate, chlorhexidine gluconate], for which, under “exposure 1 minute”, the Log10 reduction amounted to 4.0798 Log10, the Percent reduction turned out to be 99.9917% and the Post-exposure population is 1.2150 × 10^3 CFU/ML. Where the note is “exposure 5 minutes”, the Log10 reduction was determined as 6.1644 Log10, the Percent reduction was found to be 99.9999% and the Post-exposure population was <1.00 × 10^1 CFU/ML. For the same compound, for the setting “exposure 10 minutes”, the Log10 reduction was found to be 6.1644 Log10, the Percent reduction is 99.9999% and the Post-exposure population is given as <1.00 × 10^1 CFU/ML.

The record behind these values is patent publication US20140275275A1, “Chlorhexadine Antiseptic” (CARNELL & HERZOG, LLC, priority 2013, published 2014).
